Measurements published in PMC5856786, “A DHODH inhibitor increases p53 synthesis and enhances tumor cell killing by p53 degradation blockage” (Nature Communications, 2018).
Like-named read-outs stand apart in the source and are kept apart here. One block for each compound: values may come before it.

Columns and labels:
recombinant human DHODH = recombinant human DHODH (Homo sapiens, UniProt Q02127); experiment: Kinetic DHODH enzyme assay (3,4-dimethoxy-5-methyl-p-benzoquinone, DCIP); type: biochemical; design: made in house; conditions: Fig. 5a; average of three independent repeats ± SD
Description: In Fig. 5a enzyme assays were optimized and performed with 6 nM recombinant human DHODH prepared as described. The reaction mixture for these kinetic assays consisted of 1 mM DL-dihydroorotic acid, 100 µM 3,4-dimethoxy-5-methyl-p-benzoquinone (#D9150, Sigma-Aldrich), and 100 µM DCIP in enzyme buffer. A stock solution of 20 mM DCIP was prepared in enzyme buffer and filtered through filter paper (20–25 μm pore size) just before use. Loss in absorbance by DCIP was measured at 595 nm at RT in a stepped time course (8 × 2 min, 8 × 3 min, 6 × 5 min). […] Therefore, for each concentration of inhibitor tested, a value for DHODH’s Vmax was estimated by linear regression within this time frame.

[1] = In vivo pharmacokinetic parameters of (R)-HZ05; design: species or system C57B1/6N mice; conditions: for AUC(0-inf) / Cmax / Tmax / AUC / half-life / BA (%): mice; for AUC: read-out: AUC 0-h; for half-life: read-out: t (h) (half-life) (converted)
Description: Waters Acquity UPLC (Waters Corp.) was used for all LC/MS and LC/MS/MS experiments. For chromatographic separation a general gradient was used (5 % mobile phase B to 90 % over 2 min total run) on a C18 BEH 1.7 µm column 2 × 50 mm (Waters Corp.). Mobile phase A consisted of 5 % acetonitrile 0.1 % formic acid and mobile phase B 100 % acetonitrile 0.1 % formic acid. The flow rate was 0.5 mL min-1 and 3 µL of the sample was injected. A standard curve between 3−1000 nM was prepared for each compound. […]
In vivo Pharmacokinetic Parameter Determination
(R)-HZ05 was formulated for subcutaneous and oral administration at 5 mg mL-1 in 20 % hydroxypropyl-β-cyclodextrin in PBS and formulated at 5 mg mL-1 diluted in physiological NaCl. […]
Blood was collected […]
in EDTA tubes from three mice per time point and stored on ice with plasma separated within 30 min by centrifugation at 2000 g and stored at –80 ° C until analysis at 0.08, 0.25, 0.5, 1, 2, 3, 4, 6 and 24 h post administration. […] internal standard (9 nM warfarin) was added to each plasma sample and each sample was shaken at RT for 10 min followed by centrifugation at 2000 g for 30 min at 4 °C. […] of sample was injected into an Acquity UPLC coupled to a triple quadrupole mass spectrometer (Waters) operated in MRM mode with positive electrospray ionization. MRM transition 381.09 > […]
CV and 40 V for CE) as a qualifier ion. Transition for internal standard was 309.16 > 163.005 (22 V for CV and 14 V for CE). Ion source conditions were: capillary voltage, 2000 V; desolvation temperature, 500 °C; desol vation gas flow rate, 1000 L h-1. Separation was conducted using a BEH C18 column (2.1 × 50 mm, 1.7 µm, Waters) using a linear gradient: 0 – 0.5 min, 5 % B; […], 100 % B, 1.61–2.00 min, 5 % B. Mobile phase A was 5 % acetonitrile with 0.1 % formic acid and B […]
All animal experimentation was carried out by Sweden
Contract In vivo Design AB in compliance with 2010/63/EU directive and approved by Stockholms Norra Djurförsöksetiska Nämnd (laboratory animal eth ical committee Stockholm) with the approval number N61/15. Any single plasma concentration value deviated by >10 times from the other two values was excluded from the pharmacokinetic evaluation, but was included in the figure. […]

[2] = system: H1299 p53-null xenograft tumors; experiment: H1299 p53-null xenograft; type: in vivo, mice
From the text: Error bars illustrate ± SEM with significance determined by Multiple Student’s t-tests. […] See supplementary information for detailed description of protocol. d) Pharmacokinetic study examining the effect of co-administration of nutlin-3a and (R)-HZ05 on the plasma concentration of nutlin-3a over time. See supplementary information for detailed description of protocol. e) In vivo activity of (R)- HZ05 alone and in combination with nutlin-3 on H1299 p53-null xenograft tumors (n ≥ 6). […] In the tumor volume graph, (**) on day 4 indicates a statistical difference of Control to HZ05 and to nutlin-3a; (*) on day 7 indicates a difference between Control and nutlin-3a; and (**) on day 12 indicates a statistical difference between Control, […] 19

[3] = Pharmacokinetic study, nutlin-3 single or co-administered with (R)-HZ00; type: in vivo, NOD-SCID mice; conditions: mice; nutlin-3 100 mg kg-1 oral + (R)-HZ00 150 mg kg-1 i.p.
Description: Waters Acquity UPLC (Waters Corp.) was used for all LC/MS and LC/MS/MS experiments. For chromatographic separation a general gradient was used (5 % mobile phase B to 90 % over 2 min total run) on a C18 BEH 1.7 µm column 2 × 50 mm (Waters Corp.). Mobile phase A consisted of 5 % acetonitrile 0.1 % formic acid and mobile phase B 100 % acetonitrile 0.1 % formic acid. The flow rate was 0.5 mL min-1 and 3 µL of the sample was injected. A standard curve between 3−1000 nM was prepared for each compound.
Cocrystallization, data collection and structure determination of DHODH with inhibitor HZ05 Co-crystals were prepared similar to previously described6. In short 18 mg mL-1 DHODH (dissolved in 10 mM N,N-dimethylundecylamine N-oxide (C11DAO) (Fluka), 400 mM NaCl, 1 mM EDTA, 100 mM HEPES (pH 7), and 30 % glycerol) was mixed in a 1:1 ratio with 2 M NH4SO4, 0.1 M Na Acetate pH 4.8, 30 mM N,N-dimethyldodecylamine N-oxide (DDAO), 15 mM C11DAO, 2 mM L-dihydroorotic acid, 1 mM HZ05 and 6 % DMSO. The crystals did grow from hanging drops at 20°C in a VDX plate; 2.5 µL protein solution mixed with 2.5 µL reservoir (30 % (v/v) glycerol, 0.1 M Na acetate pH 4.8 and 2 M NH4SO4). A crystal was flashfrozen in liquid nitrogen and data was collected to 1.7 Å at Diamond Light Source beamline i02. The structure was determined using Molecular Replacement and refined in Refmac57. […]

ARN8 xenograft = experiment: ARN8 subcutaneous xenograft; type: in vivo; conditions: mice; (R)-HZ00 150 mg kg−1 i.p. q.d.; nutlin-3 100 mg kg−1 p.o. q.d.
Description: All animal xenograft experiments were approved by the Norwegian Animal Research Authority and conducted according to The European Convention for the Protection of Vertebrates Used for Scientific Purposes. […] The health status and weight of the mice were monitored daily and they were randomized in a non-blinded manner into 4 groups when tumor volumes reached 30–40 mm^3. […] Tumor volumes were measured every second day by a digital caliper using the following ellipsoid formula: Volume = π (length × width × height)/6.
To determine the efficacy of (R)-HZ05 in combination with nutlin-3a, 4 groups of NSG mice (n = 8 per group) were subcutaneously injected in the flank region with a single 100 μL injection of 2 × 10^6 ARN8 cells in a solution of PBS:Matrigel (volume ratio 3:1). Treatment was initiated when tumors reached ~50 mm^3. The maximum tolerated dose for this combination of drugs was previously determined for the strain we used. The endpoint of the experiment was determined by the tumor size ([…]) weight loss, and general condition of the mice according to The Norwegian Animal Research Authority.

[4] = female, C57B1/6N, mouse, plasma, iv, i.v, dose 5 mg kg-1
[5] = female, C57B1/6N, mouse, plasma, po, p.o, dose 50 mg kg-1
[6] = female, C57B1/6N, mouse, plasma, sc, s.c, dose 50 mg kg-1

Sequence of recombinant human DHODH (Q02127 29-395 limits assumed): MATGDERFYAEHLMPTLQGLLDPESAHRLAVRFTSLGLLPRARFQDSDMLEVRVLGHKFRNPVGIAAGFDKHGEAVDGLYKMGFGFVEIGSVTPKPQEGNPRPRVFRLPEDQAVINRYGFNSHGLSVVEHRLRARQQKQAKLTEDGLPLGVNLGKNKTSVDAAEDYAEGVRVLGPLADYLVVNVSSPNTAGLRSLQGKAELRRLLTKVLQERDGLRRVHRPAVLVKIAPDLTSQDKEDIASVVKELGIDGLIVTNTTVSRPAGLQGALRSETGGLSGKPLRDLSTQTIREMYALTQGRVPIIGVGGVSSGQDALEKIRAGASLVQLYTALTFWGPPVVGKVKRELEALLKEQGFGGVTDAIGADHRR

- IC50 (recombinant human DHODH): 11 ± 0.94 nM
- clearance ([1]; female, C57B1/6N, mouse, plasma, iv, 5 mg kg-1, mice, i.v): 90 mL/min/kg
- Vd ([1]; female, C57B1/6N, mouse, plasma, iv, 5 mg kg-1, mice, i.v, read-out: Vd): 8.3 L/kg
- Vd ([1]; female, C57B1/6N, mouse, plasma, iv, 5 mg kg-1, mice, i.v, read-out: Vss): 3.6 L/kg
- AUC(0-inf) [1, 4]: 2.4 µM·h
- Cmax [1, 4]: 6.1 µM
- Tmax [1, 4]: 4.8 min
- AUC [1, 4]: 2.4 µM·h
- half-life [1, 4]: 1.1 h
- AUC(0-inf) [1, 5]: 9.9 µM·h
- Cmax [1, 5]: 7.5 µM
- Tmax [1, 5]: 15 min
- AUC [1, 5]: 9.9 µM·h
- half-life [1, 5]: 2.9 h
- AUC(0-inf) [1, 6]: 30 µM·h
- Cmax [1, 6]: 14.9 µM
- Tmax [1, 6]: 30 min
- AUC [1, 6]: 30 µM·h
- half-life [1, 6]: 2.5 h
- BA (%) ([1]; p.o, dose 50 mg kg-1): 41%
- BA (%) ([1]; s.c, dose 50 mg kg-1): > 100%
SMILES: O=C(N[C@@H]1CCCc2c1cnn2-c1ccccc1F)c1onc2c1CCCC2 [(R)-HZ05]
- synergy with nutlin-3a in p53-null xenograft [2]: no synergy

SMILES: COc1ccc(C2=N[C@@H](c3ccc(Cl)cc3)[C@@H](c3ccc(Cl)cc3)N2C(=O)N2CCNC(=O)C2)c(OC(C)C)c1 [nutlin-3, reference compound]
- half-life on co-administration with (R)-HZ00 [3]: not prolonged
- toxicity in xenograft study (ARN8 xenograft): treatments had to be discontinued after 9 days due to the toxicity
